ChEMBL document CHEMBL5442175, “EUbOPEN Chemogenomics Library - PDSP Secondary Binding” (2024)

Tests used:
[1] = target: Sodium-dependent dopamine transporter (Homo sapiens, UniProt Q01959); assay: (§1) PDSP Secondary Binding target: SLC6A3 - Compounds are tested at 10 uM concentration, plate are incubated at room temperature in the dark for 90 minutes. Reaction are stopped by vacuum filtration onto 0.3% polyethyleneimine soaked filter mats using Filtermate harvester. Scintillation cocktail is then melted onto microwave-dried filters on a hot plate and the radio activity is counted in Microbia counter.
[2] = target: T1, Alpha-2C adrenergic receptor (Homo sapiens, UniProt P18825); assay: as §1, with “ADRA2C” for “SLC6A3”
T1 sequence (P18825 whole entry): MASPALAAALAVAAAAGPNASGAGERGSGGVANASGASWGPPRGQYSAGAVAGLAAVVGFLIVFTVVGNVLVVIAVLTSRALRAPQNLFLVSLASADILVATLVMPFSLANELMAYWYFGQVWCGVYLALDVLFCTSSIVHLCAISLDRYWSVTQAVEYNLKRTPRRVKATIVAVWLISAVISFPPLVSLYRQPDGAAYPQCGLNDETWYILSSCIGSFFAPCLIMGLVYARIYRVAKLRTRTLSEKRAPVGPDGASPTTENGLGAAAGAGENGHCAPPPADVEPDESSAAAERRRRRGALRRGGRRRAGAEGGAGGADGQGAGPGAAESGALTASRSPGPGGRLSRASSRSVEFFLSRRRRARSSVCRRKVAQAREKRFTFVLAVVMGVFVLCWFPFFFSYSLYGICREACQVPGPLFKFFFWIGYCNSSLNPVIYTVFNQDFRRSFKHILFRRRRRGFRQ

[3] = target: Mu-type opioid receptor (Homo sapiens, UniProt P35372); assay: as §1, with “OPRM1” for “SLC6A3”
[4] = target: 5-hydroxytryptamine receptor 2B (Homo sapiens, UniProt P41595); assay: as §1, with “HTR2B” for “SLC6A3”
[5] = target: Kappa-type opioid receptor (Homo sapiens, UniProt P41145); assay: as §1, with “OPRK1” for “SLC6A3”
[6] = target: T2, 5-hydroxytryptamine receptor 3A (Homo sapiens, UniProt P46098); assay: as §1, with “HTR3A” for “SLC6A3”
T2 sequence (P46098 whole entry): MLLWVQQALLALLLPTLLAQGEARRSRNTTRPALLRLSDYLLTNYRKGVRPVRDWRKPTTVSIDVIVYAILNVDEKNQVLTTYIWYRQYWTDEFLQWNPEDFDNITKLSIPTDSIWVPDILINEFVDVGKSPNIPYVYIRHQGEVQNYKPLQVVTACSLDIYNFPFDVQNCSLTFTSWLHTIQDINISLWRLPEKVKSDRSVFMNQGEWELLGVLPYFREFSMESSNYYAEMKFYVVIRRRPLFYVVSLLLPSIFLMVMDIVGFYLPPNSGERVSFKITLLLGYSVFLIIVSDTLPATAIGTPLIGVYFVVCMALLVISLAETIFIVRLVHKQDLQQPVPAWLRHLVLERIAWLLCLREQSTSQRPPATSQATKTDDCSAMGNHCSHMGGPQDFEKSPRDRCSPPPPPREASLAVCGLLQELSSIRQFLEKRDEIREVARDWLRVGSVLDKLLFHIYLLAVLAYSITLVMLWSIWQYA

[7] = target: T3, Alpha-2A adrenergic receptor (Homo sapiens, UniProt P08913); assay: as §1, with “ADRA2A” for “SLC6A3”
T3 sequence (P08913 whole entry): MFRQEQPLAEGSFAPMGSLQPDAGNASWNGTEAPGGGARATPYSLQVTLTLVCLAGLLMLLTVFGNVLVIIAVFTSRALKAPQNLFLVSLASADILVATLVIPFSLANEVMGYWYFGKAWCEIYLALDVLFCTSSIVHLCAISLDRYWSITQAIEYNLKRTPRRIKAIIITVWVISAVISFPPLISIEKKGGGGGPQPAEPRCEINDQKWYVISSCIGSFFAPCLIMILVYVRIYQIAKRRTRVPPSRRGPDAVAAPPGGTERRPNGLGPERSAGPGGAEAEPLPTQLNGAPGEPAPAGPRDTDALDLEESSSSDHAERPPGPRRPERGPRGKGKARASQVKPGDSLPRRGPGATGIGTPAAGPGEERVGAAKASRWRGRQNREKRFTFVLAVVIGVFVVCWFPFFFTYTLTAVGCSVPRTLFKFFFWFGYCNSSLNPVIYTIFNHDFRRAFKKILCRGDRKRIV

[8] = target: 5-hydroxytryptamine receptor 1B (Homo sapiens, UniProt P28222); assay: as §1, with “HTR1B” for “SLC6A3”
[9] = target: T4, Alpha-2B adrenergic receptor (Homo sapiens, UniProt P18089); assay: as §1, with “ADRA2B” for “SLC6A3”
T4 sequence (P18089 whole entry): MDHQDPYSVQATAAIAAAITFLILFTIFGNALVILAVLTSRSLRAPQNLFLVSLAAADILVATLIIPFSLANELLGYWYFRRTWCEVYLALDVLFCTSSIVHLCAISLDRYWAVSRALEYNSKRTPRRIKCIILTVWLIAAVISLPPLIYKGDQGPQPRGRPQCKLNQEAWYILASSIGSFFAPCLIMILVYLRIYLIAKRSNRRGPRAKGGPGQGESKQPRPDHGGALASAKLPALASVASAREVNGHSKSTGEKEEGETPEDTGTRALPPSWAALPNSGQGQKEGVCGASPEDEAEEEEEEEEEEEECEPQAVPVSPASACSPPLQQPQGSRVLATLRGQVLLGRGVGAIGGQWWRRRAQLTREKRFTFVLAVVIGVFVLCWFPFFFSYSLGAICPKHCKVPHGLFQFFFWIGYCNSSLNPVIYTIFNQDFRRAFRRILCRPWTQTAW

[10] = target: Muscarinic acetylcholine receptor M3 (Homo sapiens, UniProt P20309); assay: as §1, with “CHRM3” for “SLC6A3”
[11] = target: T5, Muscarinic acetylcholine receptor M4 (Homo sapiens, UniProt P08173); assay: as §1, with “CHRM4” for “SLC6A3”
T5 sequence (P08173 whole entry): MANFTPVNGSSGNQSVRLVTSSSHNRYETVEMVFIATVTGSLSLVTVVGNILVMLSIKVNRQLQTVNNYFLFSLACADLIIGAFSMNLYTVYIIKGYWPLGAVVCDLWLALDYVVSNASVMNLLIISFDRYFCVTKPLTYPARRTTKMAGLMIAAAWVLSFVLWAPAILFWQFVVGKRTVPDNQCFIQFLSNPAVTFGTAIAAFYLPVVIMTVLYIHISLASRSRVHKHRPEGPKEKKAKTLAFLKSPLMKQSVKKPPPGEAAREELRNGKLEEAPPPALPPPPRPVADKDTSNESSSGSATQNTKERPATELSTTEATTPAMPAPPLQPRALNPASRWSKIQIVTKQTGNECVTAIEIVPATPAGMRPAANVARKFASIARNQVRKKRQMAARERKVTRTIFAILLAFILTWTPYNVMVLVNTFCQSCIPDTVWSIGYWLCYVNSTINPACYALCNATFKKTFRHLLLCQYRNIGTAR

[12] = target: Histamine H2 receptor (Homo sapiens, UniProt P25021); assay: as §1, with “HRH2” for “SLC6A3”
[13] = target: Sodium-dependent noradrenaline transporter (Homo sapiens, UniProt P23975); assay: as §1, with “SLC6A2” for “SLC6A3”
Sequence of Sodium-dependent noradrenaline transporter (P23975 whole entry): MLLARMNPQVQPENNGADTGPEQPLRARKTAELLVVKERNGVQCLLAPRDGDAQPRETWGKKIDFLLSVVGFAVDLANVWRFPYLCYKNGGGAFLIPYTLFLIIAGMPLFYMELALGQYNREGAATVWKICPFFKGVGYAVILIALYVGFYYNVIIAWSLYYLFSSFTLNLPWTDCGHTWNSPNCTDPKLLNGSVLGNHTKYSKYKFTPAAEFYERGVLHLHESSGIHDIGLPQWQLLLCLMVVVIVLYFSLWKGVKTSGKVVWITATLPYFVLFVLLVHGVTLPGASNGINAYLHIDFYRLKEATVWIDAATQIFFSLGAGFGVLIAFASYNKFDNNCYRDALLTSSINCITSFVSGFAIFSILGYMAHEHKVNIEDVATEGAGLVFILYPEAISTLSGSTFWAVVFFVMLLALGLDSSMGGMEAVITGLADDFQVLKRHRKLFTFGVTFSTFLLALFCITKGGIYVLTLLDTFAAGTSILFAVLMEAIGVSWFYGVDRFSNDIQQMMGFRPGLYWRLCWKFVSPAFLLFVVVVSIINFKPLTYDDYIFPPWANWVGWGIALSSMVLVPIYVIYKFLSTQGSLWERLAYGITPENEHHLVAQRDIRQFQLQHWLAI

Sequence of 5-hydroxytryptamine receptor 1B (P28222 whole entry): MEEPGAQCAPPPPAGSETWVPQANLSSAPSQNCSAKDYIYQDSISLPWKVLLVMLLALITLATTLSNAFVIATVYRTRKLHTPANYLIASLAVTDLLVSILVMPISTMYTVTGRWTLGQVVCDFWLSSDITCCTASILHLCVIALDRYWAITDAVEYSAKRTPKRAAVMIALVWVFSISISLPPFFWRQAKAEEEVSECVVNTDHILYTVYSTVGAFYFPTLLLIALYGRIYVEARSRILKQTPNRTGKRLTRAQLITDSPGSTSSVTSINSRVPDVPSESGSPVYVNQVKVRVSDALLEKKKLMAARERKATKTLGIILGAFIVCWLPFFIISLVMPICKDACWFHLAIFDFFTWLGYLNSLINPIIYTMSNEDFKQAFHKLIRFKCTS
Sequence of Mu-type opioid receptor (P35372 whole entry): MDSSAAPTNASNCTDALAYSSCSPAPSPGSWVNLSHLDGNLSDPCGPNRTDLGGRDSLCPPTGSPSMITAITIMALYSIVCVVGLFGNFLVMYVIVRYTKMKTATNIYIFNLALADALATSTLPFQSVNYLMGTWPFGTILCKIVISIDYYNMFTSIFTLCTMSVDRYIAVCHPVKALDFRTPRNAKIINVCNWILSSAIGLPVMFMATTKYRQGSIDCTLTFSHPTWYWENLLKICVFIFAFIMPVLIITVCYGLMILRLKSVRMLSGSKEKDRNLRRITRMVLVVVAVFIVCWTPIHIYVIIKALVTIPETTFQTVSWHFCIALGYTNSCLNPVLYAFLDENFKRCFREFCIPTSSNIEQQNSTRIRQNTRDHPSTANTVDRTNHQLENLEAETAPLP
Sequence of 5-hydroxytryptamine receptor 2B (P41595 whole entry): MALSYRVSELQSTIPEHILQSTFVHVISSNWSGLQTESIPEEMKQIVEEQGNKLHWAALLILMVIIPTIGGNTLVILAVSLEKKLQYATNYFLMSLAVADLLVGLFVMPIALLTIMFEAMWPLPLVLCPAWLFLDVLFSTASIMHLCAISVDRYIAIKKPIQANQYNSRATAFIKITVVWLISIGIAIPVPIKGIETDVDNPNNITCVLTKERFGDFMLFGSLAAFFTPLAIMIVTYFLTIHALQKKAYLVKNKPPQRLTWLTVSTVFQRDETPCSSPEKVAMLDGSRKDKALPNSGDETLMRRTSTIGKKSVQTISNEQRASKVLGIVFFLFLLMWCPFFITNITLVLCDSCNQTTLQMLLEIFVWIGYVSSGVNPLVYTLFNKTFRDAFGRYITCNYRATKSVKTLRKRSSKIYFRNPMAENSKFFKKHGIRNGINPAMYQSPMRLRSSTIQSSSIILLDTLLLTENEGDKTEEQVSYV
Sequence of Muscarinic acetylcholine receptor M3 (P20309 whole entry): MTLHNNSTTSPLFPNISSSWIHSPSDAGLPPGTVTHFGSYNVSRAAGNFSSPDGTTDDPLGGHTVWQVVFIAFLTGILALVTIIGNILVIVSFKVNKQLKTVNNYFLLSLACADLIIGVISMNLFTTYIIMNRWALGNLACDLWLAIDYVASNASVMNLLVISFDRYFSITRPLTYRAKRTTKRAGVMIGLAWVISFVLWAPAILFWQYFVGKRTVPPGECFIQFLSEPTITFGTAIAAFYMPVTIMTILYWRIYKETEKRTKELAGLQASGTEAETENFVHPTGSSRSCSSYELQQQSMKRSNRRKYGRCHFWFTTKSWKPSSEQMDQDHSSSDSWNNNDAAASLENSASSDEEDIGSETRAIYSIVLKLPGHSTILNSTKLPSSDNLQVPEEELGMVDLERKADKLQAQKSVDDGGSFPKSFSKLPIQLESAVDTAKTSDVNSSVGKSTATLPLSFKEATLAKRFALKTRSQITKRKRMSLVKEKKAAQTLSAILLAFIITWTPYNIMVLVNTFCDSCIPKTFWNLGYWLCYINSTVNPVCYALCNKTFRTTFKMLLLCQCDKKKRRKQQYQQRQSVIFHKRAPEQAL
Sequence of Kappa-type opioid receptor (P41145 whole entry): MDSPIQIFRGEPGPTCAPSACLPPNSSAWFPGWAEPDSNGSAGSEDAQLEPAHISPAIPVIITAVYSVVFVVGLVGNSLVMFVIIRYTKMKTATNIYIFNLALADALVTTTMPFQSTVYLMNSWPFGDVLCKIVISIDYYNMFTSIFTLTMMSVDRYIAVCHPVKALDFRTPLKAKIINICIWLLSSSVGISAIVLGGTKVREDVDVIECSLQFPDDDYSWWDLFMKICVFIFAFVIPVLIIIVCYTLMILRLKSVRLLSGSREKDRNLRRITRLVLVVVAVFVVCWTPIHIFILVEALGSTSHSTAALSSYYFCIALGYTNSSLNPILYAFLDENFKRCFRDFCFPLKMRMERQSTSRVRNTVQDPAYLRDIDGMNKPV
Sequence of Histamine H2 receptor (P25021 whole entry): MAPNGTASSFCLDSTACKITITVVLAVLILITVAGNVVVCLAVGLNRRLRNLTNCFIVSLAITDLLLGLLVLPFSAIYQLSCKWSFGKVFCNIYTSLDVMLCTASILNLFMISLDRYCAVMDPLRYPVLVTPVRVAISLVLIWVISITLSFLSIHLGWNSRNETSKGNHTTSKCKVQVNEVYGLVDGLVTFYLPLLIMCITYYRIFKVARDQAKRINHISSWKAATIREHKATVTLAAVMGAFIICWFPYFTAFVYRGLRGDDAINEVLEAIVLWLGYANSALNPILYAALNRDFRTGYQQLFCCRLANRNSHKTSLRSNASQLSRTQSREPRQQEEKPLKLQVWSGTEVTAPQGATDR
Sequence of Sodium-dependent dopamine transporter (Q01959 whole entry): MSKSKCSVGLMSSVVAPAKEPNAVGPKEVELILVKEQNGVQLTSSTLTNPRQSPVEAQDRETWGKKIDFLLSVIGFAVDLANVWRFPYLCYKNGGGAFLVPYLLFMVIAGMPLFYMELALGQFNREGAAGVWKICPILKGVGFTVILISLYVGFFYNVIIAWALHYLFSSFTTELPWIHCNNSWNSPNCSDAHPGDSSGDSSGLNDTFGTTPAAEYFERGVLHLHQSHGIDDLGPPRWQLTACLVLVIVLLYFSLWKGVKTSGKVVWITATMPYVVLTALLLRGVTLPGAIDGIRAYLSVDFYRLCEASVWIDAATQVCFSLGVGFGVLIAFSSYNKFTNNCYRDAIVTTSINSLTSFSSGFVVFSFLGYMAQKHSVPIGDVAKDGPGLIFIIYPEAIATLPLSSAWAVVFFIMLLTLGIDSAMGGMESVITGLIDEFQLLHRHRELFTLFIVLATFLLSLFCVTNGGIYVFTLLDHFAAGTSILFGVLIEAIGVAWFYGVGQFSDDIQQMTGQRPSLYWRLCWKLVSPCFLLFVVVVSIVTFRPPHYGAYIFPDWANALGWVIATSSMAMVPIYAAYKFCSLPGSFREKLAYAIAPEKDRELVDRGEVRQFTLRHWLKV

CCOC(=O)c1c(C)[nH]c2ccc3c(c12)CN1CCc2cc(OC)ccc2C1O3 (stereo not drawn)
Ki [1]: 673 nM | Ki [2]: 585 nM | Ki [3]: 1130 nM | Ki [4]: 500 nM | Ki [5]: 1940 nM | Ki [6]: 1660 nM | Ki [7]: 767 nM | Ki [8]: 2160 nM | Ki [9]: 3230 nM | Ki [10]: 173 nM | Ki [11]: 46.9 nM | Ki [12]: 2840 nM | Ki [13]: 2850 nM
